Values quoted from earlier work as cited in patent US5641787A, “Indole derivatives as dopamine D4 antagonists” (Merck, Sharp & Dohme Ltd., priority 1995, dated 1997).

Conditions: stated in Recl. Trav. Chim. Pays-Bas, 1954, 73, 629

c1ccc2c(c1)CCN(Cc1c[nH]c3ccccc13)C2 [3-(1,2,3,4-tetrahydroisoquinolin-2-yl)methyl-1H-indole]
oxytocic activity: oxytocic activity
